Converted amounts (≈) assume the structure as drawn.
Key:
[1] = test system: C. albicans CAF2-1 strain; experiment: Anti-Candida activity, MIC measurement; format: cell-based; details: CAF21STRAIN, C. albicans CAF2-1, RPMI1640, 42-48 hours at 35° C., visual inspection, read-out: Anti-Candida Activity (minimum inhibitory concentration, MIC)
Method in brief: (§1)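 C. albicans CAF2-1 was grown 48 h at 30° C. in SDB and diluted in RPMI1640 to 1.2×10^3 cells/mL. Frozen A. fumigatus Tsukuba was diluted to 4.5×10^3 cells/mL. Compounds, two-fold serially diluted in DMSO from 2.5 mg/mL, were cultured aerobically with fungi for 42-48 h at 35° C.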

[2] = test system: A. fumigatus Tsukuba strain; experiment: Anti-Aspergillus activity, MIC measurement; format: cell-based; details: RPMI1640, 42-48 hours at 35° C., visual inspection, read-out: Anti-Aspergillus Activity (minimum inhibitory concentration, MIC)
Method in brief: as §1

[3] = test system: C. albicans E81022 strain; experiment: Experimental systemic candidal infection model in mice; format: in vivo; details: peroral, 3 times every 4 hours, female ICR mice, observed until 14 days after infection
Method: A standing culture of C. albicans E81022 strain was carried out for 48 hours at 30° C. in sabouraud dextrose agar medium (SDA), the recovered fungal cells were suspended in sterilized physiological saline. By counting the fungal number on cytometry plate, the suspension was diluted to 2×10^7 cells/mL with sterilized physiological saline to serve fungal inoculum.
The fungal inoculum was used in the amounts of 0.2 mL to inoculate 4.5 to 5.5 week-old female ICR mice in the tail vein (4×10^6 cells/mouse).
From 0.5 to 1 hour after fungal inoculation, 0.2 mL of agent solution (dissolved or suspended in sterilized physiological saline containing 6.5% dimethyl sulfoxide and 3.5% Tween 80) was administered into the stomach using a peroral probe, 3 times every 4 hours. The agent concentration was 2.5 mg/kg or 10 mg/kg, and the number of animals in one group was 5 animals.
The protective effect was determined by observing life/death until 14 days after infection and calculating the mean survival days.

| SMILES | MIC [1] [µg/mL] | MIC [2] [µg/mL] | Mean Survival Days ([3]; 2.5 mg/kg) [days] | Mean Survival Days ([3]; 10 mg/kg) [days] |
| --- | --- | --- | --- | --- |
| Nc1ncccc1-c1cc(Cc2ccc(COc3ccccc3)nc2)no1 [Example 54, 3-(3-(6-Phenoxymethyl-pyridin-3-ylmethyl)-isoxazol-5-yl)-pyridin-2-ylamine] | 0.1 (≈ 0.279 µM) | 0.39 (≈ 1.09 µM) | 13.0 | 13.6 |
| Nc1ncccc1-c1cc(Cc2ccc(COc3cccc(F)n3)cc2)no1 [Example 55, 3-(3-(4-(6-Fluoro-pyridin-2-yloxymethyl)-benzyl)-isoxazol-5-yl)-pyridin-2-ylamine] | 0.05 (≈ 0.133 µM) | 0.1 (≈ 0.266 µM) | 13.8 | 14.0 |
| Nc1ncccc1-c1cc(Cc2ccc(OCc3ccc(F)cc3)nc2)no1 [Example 58, 3-(3-(6-(4-Fluoro-benzyloxy)-pyridin-3-ylmethyl)-isoxazol-5-yl)-pyridin-2-ylamine] | 0.78 (≈ 2.07 µM) | 0.1 (≈ 0.266 µM) | 3.8 | 12.0 |
| Nc1ncccc1-c1cc(Cc2ccc(Cc3ccc(Cl)o3)cc2)no1 [Example 62, 3-(3-(4-(5-Chloro-furan-2-ylmethyl)-benzyl)-isoxazol-5-yl)-pyridin-2-ylamine] | 0.2 (≈ 0.547 µM) | 0.2 (≈ 0.547 µM) | 10.2 | – |
| Nc1ncccc1-c1cc(Cc2ccc(CNc3ccccc3)cc2)no1 [Example 73, 3-(3-(4-Phenylaminomethyl-benzyl)-isoxazol-5-yl)-pyridin-2-ylamine] | 0.1 (≈ 0.281 µM) | 0.39 (≈ 1.09 µM) | 4.4 | 12.6 |
| Cc1ccnc(OCc2ccc(Cc3cc(-c4ccc(N)nc4N)on3)cc2)c1 [Example 102, 3-(3-(4-(4-Methyl-pyridin-2-yloxymethyl)-benzyl)-isoxazol-5-yl)-pyridin-2,6-diamine] | 0.2 (≈ 0.516 µM) | 0.39 (≈ 1.01 µM) | 13.2 | 13.0 |
| Nc1ccc(-c2cc(Cc3ccc(OCc4cccc(F)n4)cc3)no2)c(N)n1 [Example 104, 3-(3-(4-(6-Fluoro-pyridin-2-ylmethoxy)-benzyl)-isoxazol-5-yl)-pyridin-2,6-diamine] | 0.78 (≈ 1.99 µM) | 0.78 (≈ 1.99 µM) | 8.2 | 13.2 |
| Cc1ccc(Cc2ccc(Cc3cc(-c4ccc(N)nc4N)on3)cc2)o1 [Example 105, 3-(3-(4-(5-Methyl-furan-2-ylmethyl)-benzyl)-isoxazol-5-yl)-pyridin-2,6-diamine] | 0.2 (≈ 0.555 µM) | 0.2 (≈ 0.555 µM) | 5.4 | 12.8 |
| Nc1ccc(-c2cc(Cc3ccc(OCc4cc(Cl)ccn4)cc3)no2)c(N)n1 [Example 109, 3-(3-(4-(4-Chloro-pyridin-2-ylmethoxy)-benzyl)-isoxazol-5-yl)-pyridin-2,6-diamine] | 0.39 (≈ 0.956 µM) | 0.78 (≈ 1.91 µM) | 11.0 | 11.8 |
| Nc1ccc(-c2cc(Cc3ccc(OCc4cccc(Cl)n4)cc3)no2)c(N)n1 [Example 110, 3-(3-(4-(6-Chloro-pyridin-2-ylmethoxy)-benzyl)-isoxazol-5-yl)-pyridin-2,6-diamine] | 0.78 (≈ 1.91 µM) | 0.78 (≈ 1.91 µM) | 12.0 | – |
| Nc1ccc(-c2cc(Cc3ccc(COc4ccccc4)nc3)no2)c(N)n1 [Example 111, 3-(3-(6-Phenoxymethyl-pyridin-3-ylmethyl)-isoxazol-5-yl)-pyridin-2,6-diamine] | 0.39 (≈ 1.04 µM) | 0.78 (≈ 2.09 µM) | 13.6 | – |
| Nc1ccc(-c2cc(Cc3ccc(OCc4ccc(F)cn4)cc3)no2)c(N)n1 [Example 112, 3-(3-(4-(5-Fluoro-pyridin-2-ylmethoxy)-benzyl)-isoxazol-5-yl)-pyridin-2,6-diamine] | 0.78 (≈ 1.99 µM) | 0.39 (≈ 0.996 µM) | – | 12.2 |
| Nc1ccc(-c2cc(Cc3ccn(Cc4ccccc4)c3)no2)c(N)n1 [Example 115, 3-(3-(1-Benzyl-1H-pyrrol-3-ylmethyl)-isoxazol-5-yl)-pyridin-2,6-diamine] | 0.1 (≈ 0.29 µM) | 0.2 (≈ 0.579 µM) | 10.8 | 13.2 |
| Nc1ccc(-c2cc(Cc3ccc(OCc4ccc(F)cc4)nc3)no2)c(N)n1 [Example 116, 3-(3-(6-(4-Fluoro-benzyloxy)-pyridin-3-ylmethyl)-isoxazol-5-yl)-pyridin-2,6-diamine] | 0.78 (≈ 1.99 µM) | 0.2 (≈ 0.511 µM) | 4.6 | 12.6 |
| Nc1ccc(-c2cc(Cc3ccc(Cc4ccc(Cl)o4)cc3)no2)c(N)n1 [Example 120, 3-(3-(4-(5-Chloro-furan-2-ylmethyl)-benzyl)-isoxazol-5-yl)-pyridin-2,6-diamine] | 0.39 (≈ 1.02 µM) | 0.2 (≈ 0.525 µM) | 3.2 | 13.4 |
| Nc1ccc(-c2cc(Cc3ccc(Oc4cccc(F)c4)nc3)no2)c(N)n1 [Example 131, 3-(3-(6-(3-Fluoro-phenoxy)-pyridin-3-ylmethyl)-isoxazol-5-yl)-pyridin-2,6-diamine] | 0.2 (≈ 0.53 µM) | 0.2 (≈ 0.53 µM) | 12.6 | 12.8 |
| Nc1ccc(-c2cc(Cc3ccc(CNc4ccccc4)cc3)no2)c(N)n1 [Example 133, 3-(3-(4-Phenylaminomethyl-benzyl)-isoxazol-5-yl)-pyridin-2,6-diamine] | 0.2 (≈ 0.538 µM) | 0.39 (≈ 1.05 µM) | 7.0 | 13.4 |
| Nc1ccc(-c2cc(Cc3ccc(Oc4ccc(F)cc4)nc3)no2)c(N)n1 [Example 135, 3-(3-(6-(4-Fluoro-phenoxy)-pyridin-3-ylmethyl)-isoxazol-5-yl)-pyridin-2,6-diamine] | 0.78 (≈ 2.07 µM) | 0.39 (≈ 1.03 µM) | 11.0 | 13.4 |
| Nc1ccc(-c2cc(Cc3ccc(OCc4nccs4)cc3)no2)c(N)n1 [Example 151, 3-(3-(4-(Thiazol-2-ylmethoxy)-benzyl)-isoxazol-5-yl)-pyridin-2,6-diamine] | 0.78 (≈ 2.06 µM) | 0.39 (≈ 1.03 µM) | 7.0 | 14.0 |
| Nc1ccc(-c2cc(Cc3ccc(Oc4ccc(F)cc4)s3)no2)c(N)n1 [Example 155] | 0.1 (≈ 0.261 µM) | 0.1 (≈ 0.261 µM) | 10.4 | 13.0 |
| COCc1ccc(-c2cc(Cc3ccc(OCc4ccccn4)cc3)no2)c(N)n1 [Example 166, 6-Methoxymethyl-3-(3-(4-(pyridin-2-ylmethoxy)-benzyl)-isoxazol-5-yl)pyridin-2-ylamine] | 0.39 (≈ 0.969 µM) | 0.78 (≈ 1.94 µM) | 3.4 | 12.4 |
| Cc1ccc(-c2cc(Cc3ccc(COc4ccccn4)cc3)no2)c(N)n1 [Example 171] | 0.2 (≈ 0.537 µM) | 0.39 (≈ 1.05 µM) | 8.4 | 12.6 |
| Nc1ccc(-c2cc(Cc3ccc(COc4ccccn4)cc3)no2)cn1 [Example 176] | 0.2 (≈ 0.558 µM) | 0.2 (≈ 0.558 µM) | 12.6 | 13.4 |
| Nc1ncccc1-c1cnn(Cc2ccc(OCc3ccccn3)cc2)c1 [Example 192, 3-(1-(4-(Pyridin-2-ylmethoxy)-benzyl)-1H-pyrazol-4-yl)-pyridin-2-ylamine] | 0.39 (≈ 1.09 µM) | 1.56 (≈ 4.36 µM) | 3.2 | 9.4 |
| c1ccc(OCc2ccc(Cc3cc(-c4cccnc4)on3)cc2)nc1 [Example 202, 3-(3-(4-(Pyridin-2-yloxymethyl)-benzyl)-isoxazol-5-yl)-pyridine] | 0.05 (≈ 0.146 µM) | 0.2 (≈ 0.582 µM) | 2.4 | 10.0 |
